Assay results published in patent US20040266857A1, “Novel lapachone compounds and methods of use thereof” (priority 2002, published 2004).

How the values were obtained:
[1] = system: DLD1 human colon carcinoma cells; assay: Cell proliferation (colony formation) assay, DLD1; type: cell-based; conditions: DLD-1, cancer cell line DLD1, 4 h exposure, colonies scored after 10-15 days, compounds added in micromolar concentrations
Procedure: (§1) Cell proliferation assays were performed as described previously (Müller et al., (1996) J. Med. Chem. 39: 3132-3138; Müller et al., (1994) J. Med. Chem. 37: 1660-1669). More specifically, exponentially growing cells were seeded at 1,000 cells per well in six-well plates and allowed to attach for 24 h. […] Control wells were treated with equivalent volumes of DMSO. After 4 h, the supernatant was removed and fresh medium was added. Cultures were observed daily for 10-15 days and then were fixed and stained. Colonies of greater than 30 cells were scored as survivors. The assays of the present invention as shown in Table 2 and methods of measuring induction of E2F activity and elevation of E2F levels can be carried out following the descriptions found in Li et al., (2003) Proc Natl Acad Sci USA. 100(5): 2674-8 and U.S. Patent Application Publication No.2002/0169135, both incorporated herein by reference in their entireties.

[2] = system: A549 human lung carcinoma cells; assay: Cell proliferation (colony formation) assay, A549; type: cell-based; conditions: cancer cell line A549, 4 h exposure, colonies scored after 10-15 days, compounds added in micromolar concentrations
Procedure: as §1, with “The assays of the present invention as shown in Table 2 and methods of measuring induction of E2F activity and elevation of E2F levels can be carried out following the descriptions found in Li et al., (2003) Proc Natl Acad Sci USA.” left out

[3] = system: MIA PACA-2 human pancreatic carcinoma cells; assay: Cell proliferation (colony formation) assay, PaCa-2; type: cell-based; conditions: cancer cell line PaCa-2, 4 h exposure, colonies scored after 10-15 days, compounds added in micromolar concentrations, read-out: Average IC50 Pancr. PaCa-2
Procedure: as §1

[4] = system: HT-29 human colon carcinoma cells; assay: Cell proliferation (colony formation) assay, HT-29; type: cell-based; conditions: cancer cell line HT-29, 4 h exposure, colonies scored after 10-15 days, compounds added in micromolar concentrations
Procedure: as §1

[5] = system: SW-480 human colon carcinoma cells; assay: Cell proliferation (colony formation) assay, SW480; type: cell-based; conditions: cancer cell line SW480, 4 h exposure, colonies scored after 10-15 days, compounds added in micromolar concentrations
Procedure: as §1

[6] = system: MCF-7 human breast carcinoma cells; assay: Cell proliferation (colony formation) assay, MCF7; type: cell-based; conditions: cancer cell line MCF7, 4 h exposure, colonies scored after 10-15 days, compounds added in micromolar concentrations
Procedure: as §1

[7] = system: MCF 10A normal breast epithelial cells; assay: Cell proliferation (colony formation) assay, MCF10A normal cells; type: cell-based; conditions: Homo sapiens, normal cell line MCF10A, 4 h exposure, colonies scored after 10-15 days, compounds added in micromolar concentrations, read-out: Average IC50 Normal Cell Lines Breast MCF10A
Procedure: as §1

[8] = system: NCM 460 normal colonic epithelial cells; assay: Cell proliferation (colony formation) assay, NCM460 normal cells; type: cell-based; conditions: Homo sapiens; normal cell line NCM460; 4 h exposure, colonies scored after 10-15 days; compounds added in micromolar concentrations; read-out: Average IC50 Normal Cell Lines Colon NCM460
Procedure: as §1

human cancer cell lines = conditions: single agent; typical range; read-out: antineoplastic activity against human cancer cell lines (IC50); cited from earlier work
[9] = system: E2F family of transcription factors; conditions: cancer cells versus normal cells; cited from earlier work
[10] = system: normal fresh or proliferating human PBMC; conditions: cited from earlier work
[11] = system: cancer cell lines and normal cells; conditions: Li et al. 2003; cited from earlier work

IC50 [1]	IC50 [2]	IC50 [3]	IC50 [4]	IC50 [5]	IC50 [6]	Structure (SMILES)	IC50 [7]	IC50 [8]	IC50 (human cancer cell lines)	induction of sustained E2F activity in nuclei of cancer cells but not in normal cells [9]	cytotoxic effects on normal human PBMC [10]	induction of apoptosis in cancer cell lines versus normal cells [11]
2 µM	1.7 µM	1.5 µM	1.8 µM	1.5 µM	1 µM	CC1(C)CCC2=C(S1)c1ccccc1C(=O)C2=O [Compound 1, 3,4-dihydro-2,2-dimethyl-2H-naphtho[1,2-b]thiopyran-5,6-dione]	6.7 µM	7.5 µM				
32 µM				32 µM	16 µM	CC1(C)CCC2=C(S1)C(=O)c1ccccc1C2=O [Compound 2, 3,4-dihydro-2,2-dimethyl-2H-naphtho[2,3-b]thiopyran-5,10-dione]						
0.9 µM			1.5 µM	0.9 µM	1 µM	CC1SC2=C(C(=O)C(=O)c3ccccc32)C1(C)C (stereo not drawn) [Compound 3, 2,3,3-trimethyl-2H-3H-naphtho[1,2-b]thiophene-4,5-dione]		2 µM				
	2.3 µM	1.3 µM	1.7 µM			CC1SC2=C(C(=O)C(=O)c3ccccc32)C1(c1ccccc1)c1ccccc1 (stereo not drawn) [Compound 5, 2-methyl-3,3-diphenyl-2H-3H-naphtho[1,2-b]thiophene4,5-dione]	5.9 µM	7.8 µM				
	1.6 µM	1.2 µM	1.6 µM			CC1(C)CCSC2=C1C(=O)C(=O)c1ccccc12 [Compound 6, 3,4-dihydro4,4-dimethyl-2H-naphtho[1,2-b]thiopyran-5,6-dione]	6.3 µM	6 µM				
	2 µM	2.3 µM	2.2 µM			O=C1C(=O)c2ccccc2C2=C1C(c1ccccc1)CCS2 (stereo not drawn) [Compound 7, 3,4-dihydro-4-phenyl-2H-naphtho[1,2-b]thiopyran-5,6-dione]	7 µM	8.8 µM				
	2 µM	1.4 µM	1.5 µM	1.5 µM		CC1CSC2=C(O1)C(=O)C(=O)c1ccccc12 (stereo not drawn) [Compound 9, 2-methyl-11,12-dehydro-naphtho[1,2-b]thioxane-9,10-dione]	6.4 µM	4.9 µM				
	1.8 µM	2 µM	2 µM	1 µM		CC1OC2=C(SC1C)c1ccccc1C(=O)C2=O (stereo not drawn) [Compound 10, 2,3-dimethyl-11,12-dehydro-naphtho[1,2-b]thioxane-9,10-dione]	8 µM	6.1 µM				
	3.1 µM	2.2 µM	4 µM			CC1SC2=C(OC1(C)C)C(=O)C(=O)c1ccccc12 (stereo not drawn) [Compound 12, 2,2,3-trimethyl-11,12-dehydro-naphtho[1,2-b]thioxane-9,10-dione]	14.1 µM	13.1 µM				
2.8 µM				2.8 µM	1 µM	CC1OC2=C(C(=O)C(=O)c3ccccc32)C1(C)C (stereo not drawn) [Dunnione, 2,3,3-trimethyl-2,3,4,5-tetrahydro-naphtho(2,3-b)dihydrofuran-6,7-dione, reference compound]		4 µM				
3.6 µM		1.6 µM	2.1 µM	3.3 µM	1 µM	CC1(C)CCC2=C(O1)c1ccccc1C(=O)C2=O [β-Lapachone, 3,4-dihydro-2,2-dimethyl-2H-naphtho[1,2-b]pyran-5,6-dione, reference compound]	5.8 µM	8.1 µM	1 to 10 µM	induces sustained E2F activity	No cytotoxic effects	induces apoptosis only in cancer cell lines and not in normal cells
